Reference: US10087465B2, “Trans-acting elements for intracellular delivery of nucleic acid sequences” (The United States of America, as Represented by the …, priority 2014, dated 2018)
“Also recorded” adds a separate entry of the source. {F1} = fluorescein label

Key:
Type in all cases: cell-based
[1] = test system: HeLa pLuc 705 cells; assay: Confocal microscopy analysis of dTtaPS-assisted internalization of PNA or PMO oligomers; settings: dTtaPS-assisted uptake; oligomer 1.0, dTtaPS 2.0 μM; 12 h at 37° C.
Method: Confocal microscopy analysis of dTtaPS-assisted internalization of PNA or PMO oligomers in HeLa pLuc 705 cells: HeLa pLuc 705 cells (5×10^4 cells/well) were seeded in 8-well chambered slides and cultured for 24 h at 37° C. in 10% FBS-MEM (200 μl). The culture medium of each well was then replaced with 20% FBS containing fresh medium (200 μl) and the fluoresceinated PNA or PMO oligomer:dTtaPS complex that was prepared as described above to provide an oligomer and dTtaPS final concentration of […] and 2.0 μM, respectively. After a 12 h incubation at 37° C., the medium was removed and a 0.4% Trypan Blue solution (200 μl) was added to quench the fluorescence stemming from extracellular fluoresceinated oligonucleotides. After a period of 5 minutes at ambient temperature, the cells were washed twice with PBS (pH 7.4, 200 μl) followed by the addition of fresh phenol red-free DMEM (200 μl) supplemented with 10% FBS. The intracellular distribution of fluorescence was determined without fixation using a Leica SP8 confocal microscope system and analysed using the Leica LASAF software. Hoechst 33342 was used, in accordance with the manufacturer's staining protocols, for the detection of nuclei. Images were acquired at a 63× magnification.

[2] = test system: HEK 293, HeLa, HeLa pLuc705, MCF7 and SK—N—SH live cells; assay: Flow cytometry (FACS) analysis of cellular uptake of fluorescently-labeled PNA or PMO oligomers in live cells
Method: (§1) Complex formation between PNA or PMO oligomers and dTtaPS or dAtaPS: Appropriate amounts of PNA or PMO oligomers were diluted in serum-free OptiMEM™ (20 μl). dTtaPS or dAtaPS was added to the oligomer solution to achieve a final concentration that is twice that of the oligomer. After 30 min incubation at 37° C., the PNA or PMO oligomer: dTtaPS or dAtaPS complexes were stored at 4° C. for 15 minutes or until used. Stock solutions (2×) of the complexes were made by adding OptiMEM™ to appropriate volumes.
Flow cytometry analysis of cellular uptake in live cells: The internalization of fluorescently-labeled PNA or PMO sequences (Table 1) in HEK 293, HeLa, MCF7 and SK—N—SH cells was assessed by flow cytometry. Cells were seeded in a 96-well plate (10^4 cells/well) and allowed to grow at 37° C. for 24 h in 10% FBS-MEM. The culture medium of each well was then replaced with fresh medium (100 μl) containing any of the fluorescently-labeled PNA or PMO sequences, the final concentration of which was 1 μM. After an incubation of 18 h at 37° C., the medium was removed from each well by suction and 0.25% Trypsin (50 μl) was added. Upon complete cell detachment, a solution (100 μl) of ice-cold 2% FBS in phosphate-buffered saline (PBS, pH 7.4) was added to each well. The cells were collected into tubes, to which was added 0.4% Trypan blue (50 μl) and 200 µM monensin (20 μl), and analyzed by fluorescence-activated cell sorting (FACS) using a BD FACScan™ flow cytometer. A total of 5000 events were counted and the results were reported as a percentage of the cells that have internalized the fluorescently-labeled oligomers.

[3] = test system: HeLa pLuc705 cells; assay: Luciferase splice correction assay; settings: for luciferase activity / internalization of the oligomer in the absence of PS-dT8[3+] (dTtaPS): no transfection element
Method: The efficiency of PS-dT8[3+] in the cellular uptake of polyA-tailed PNA oligomers was assessed through the luciferase splice correction assay in which the mutated intron 2 of the human β-globin gene has been inserted within the coding sequence of a luciferase reporter gene (pLuc705). The activation of a cryptic splice site in this intron leads to a defective luciferase enzyme. In the presence of a PNA oligomer complementary to the aberrant splice site, correct splicing is restored and results in an active luciferase. A concentration-dependence of splice correction activity by PS-dT8[3+]-mediated internalization of the PNA oligomer 10 in HeLa pLuc705 cells is shown in FIG. 12.
as §1
Luciferase assay protocol: HeLa pLuc 705 cells were seeded in a 96-well plate (2×10^4 cells/well) and allowed to grow at 37° C. for 18 h in 10% FBS-DMEM. The culture medium of each well was then replaced with either fresh serum-free or 20% serum-containing OptiMEM™ (50 μl) for experiments intended to be performed in serum-free or in 10% serum-containing media. A 2× solution of PNA or PMO oligomer:dTtaPS or dAtaPS complexes (50 μl) was added to the cells in order to achieve pre-determined complex concentrations, as indicated in the Figures. After a 4-hour incubation at 37° C., 20% FBS in OptiMEM™ (100 μl was added to serum-free experiments and cells were incubated for an additional 18 h at 37° C. The media was then removed by suction and the cells were mixed with a cell lysis reagent (50 μl) and agitated at ambient temperature for 10 minutes. The cell lysate (30 μl) was placed in a white 96-well plate and Bright-Glo™ reagent (20 μl) was added. Luciferase activity was measured using a microplate reader. For each well, luminescence was integrated over a period of 1 sec and recorded as relative light units (RLU). Luminescence measurements were normalized to the amount of protein present in the test sample.
Appropriate amounts of PNA/PMO oligomers were diluted in OptiMEM™ (20 μL) to achieve the concentration of 1 μM or as indicated in the Figures. PS-dT8[3+] or PS-dAs[3+] was added to the above oligomer solutions. After a 30 min incubation at 37° C., the PNA/PMO oligomer:PS-dT8[3+] or PS-dA8[3+] complexes were removed and kept at 4° C. for 15 minutes or until used. Stock solutions of the complexes were made by adding OptiMEM™ to appropriate volumes.
Luciferase Assay: Prior to performing experiments, HeLa pLuc 705 cells were seeded in a 96-well plate (2×10^4 cells/well) and allowed to grow at 37° C. for 18 h in 10% FBS DMEM. The culture medium of each well was then replaced with either fresh 50 μL serum free or 20% serum-containing OptiMEM™ for experiments intended to be performed in serum free or in 10% serum-containing media. A 2× solution of the PNA/PMO oligomer:PS-dT8[3+] or PS-dAs[3+] complexes (50 μL) was added to the cells in order to achieve a pre-determined concentration as indicated in the figures. After a 4-hour incubation at 37° C., 20% FBS in OptiMEM (100 μL) was added to serum free experiments and cells were incubated for an additional 18 h at 37° C. The media was then removed by suction and the cells were mixed with a cell lysis reagent (50 μL) and agitated at ambient temperature over a period of 10 minutes. The cell lysate (30 μL) was placed in white 96-well plate and Bright-Glow™ reagent (20 μL) was added. Luciferase activity was measured using a microplate reader. […]

[4] = test system: HeLa pLuc705 cells; assay: Cytotoxicity study with commercial cell-counting kit (CCK-8); settings: oligomer 1.0 μM, dTtaPS 2.0 μM; 18 h; compared to medium or absence of dTtaPS
Method: Flat-bottom 96-well plates were purchased from BD-Falcon. The CCK-8 Kit for cytotoxicity studies was purchased from Dojindo Molecular Technologies.
The cytotoxicity of PNA oligomer 10:dTtaPS and PMO oligomer 21:dTtaPS complexes in HeLa pLuc 705 cells was evaluated over a period of 18 h using a commercial cell-counting kit.

[5] = test system: HeLa pLuc 705 cells; assay: Energy-dependence of the dTtaPS-assisted internalization of PNA oligomer 10; settings: dTtaPS-mediated uptake; incubation of 1 h
Method: Energy-dependence of the dTtaPS-assisted internalization of PNA oligomer 10 in HeLa pLuc 705 cells: HeLa pLuc 705 cells were seeded in a 96-well plate (2×10^4 cells/well) and allowed to grow at 37° C. for 18 h in 10% FBS-DMEM. While the cell culture was maintained at 37° C. or 4° C., a 2× solution of a PNA oligomer 10:dTtaPS complex was prepared as described above. The cell culture medium was replaced with the PNA oligomer:dTtaPS complex solution to provide an oligomer and dTtaPS final concentration of […], respectively. After an incubation of 1 h at 37° C. or 4° C., the medium was removed by suction and luciferase activity was measured as described above in the Luciferase assay protocol. Luminescence measurements were normalized to the amounts of protein present in the test samples and reported as percent luminescence remaining relative to that of the experiment performed at 37° C.

[6] = test system: HeLa pLuc 705 cells; assay: Competition assay with PS-dT8 (luciferase readout); settings: PNA oligomer 10 1.0 μM, dTtaPS 1.0 μM, PS-dT8 1.0, 2.0 or 4.0 μM
Method: Competition assay: HeLa pLuc 705 cells were seeded in a 96-well plate and grown in 10% FBS-DMEM as described above. Predetermined amounts of polyA-tailed PNA oligomer 10 and octathymidilyl DNA phosphorothioate (PS-dT8) were placed in individual microfuge tubes so that the molar ratio of PNA:PS-dT8 in each tube was 1:1, 1:2 or 1:4. OptiMEM™ (20 μl) was added to each of the three tubes, which were then placed in a heating block pre-heated to 60° C. After 2 min, the tubes were removed from the heating block, allowed to cool slowly to 20° C., and then, left standing in a cold room (4° C.) for 15 min. dTtaPS was added to the mixture of oligomers of each tube to achieve a concentration that is equimolar to that of the PNA oligomer 10. After a 30 min incubation at 37° C., the PNA/PS-dT8:dTtaPS complexes were stored at 4° C. for 15 minutes or until used. […] The cells were then incubated for an additional 30 min at 37° C., whereupon luciferase activity was measured as described above in the Luciferase assay protocol. Luminescence measurements were normalized to the amounts of protein present in the test samples and reported as percent luminescence remaining relative to that of the experiment performed in the absence of PS-dT8.

PMO oligomer 18: commercial PMO, CCTCTTACCTCAGTTACA-AAAAAA-F1, SEQ ID NO. 12 (CCTCTTACCTCAGTTACAAAAAAA; all phosphorodiamidate morpholino (PMO), 3' {F1})
intracellular distribution of fluorescence [1]: endosomal sequestration of 18 and modest nuclear fluorescence
PS-dT8[3+] (dTtaPS)-mediated delivery of fluoresceinated PMO oligomers ([2]; PMO oligomer 1 μM, PS-dT8[3+] 2 μM, all cell lines, FIG. 17, listed as 18): confirmed the dTtaPS-assisted delivery

PMO oligomer 21: commercial PMO, CCTCTTACCTCAGTTACA-AAAAAA, SEQ ID NO. 15 (CCTCTTACCTCAGTTACAAAAAAA; all phosphorodiamidate morpholino (PMO))
luciferase activity / internalization of the oligomer in the absence of PS-dT8[3+] (dTtaPS) ([3]; listed as 21): reduced to that of the negative control oligomer 22
cytotoxicity of oligomer:dTtaPS complexes [4]: did not induce significant cytotoxicity

PNA oligomer 7: commercial PNA, F1-CCTCTTACCTCAGTTACA-AAAAAA-NH2, SEQ ID NO. 1 (CCTCTTACCTCAGTTACAAAAAAA; all peptide nucleic acid (PNA), 5' {F1}; PNA with C-terminal amide, further chemistry not fully specified)
intracellular distribution of fluorescence [1]: endosomal sequestration of 7 is predominant
mean fluorescence intensity (MFI) after internalization, relative to that of PMO oligomer 18 ([2]; dTtaPS-mediated uptake, FACS analysis): ~10 fold
PS-dT8[3+] (dTtaPS)-mediated cellular internalization of fluoresceinated PNA oligomers ([2]; in the presence of PS-dT8[3+], oligomer 1 μM, all cell lines under study, FIG. 11): efficiently internalized

PNA oligomer 10: commercial PNA, H-CCTCTTACCTCAGTTACA-AAAAAA-NH2, SEQ ID NO. 4 (CCTCTTACCTCAGTTACAAAAAAA; all peptide nucleic acid (PNA); PNA with C-terminal amide)
luciferase activity / internalization upon PS-dA8[3+] (dAtaPS)-mediated delivery of PNA oligomers ([3]; PS-dA8[3+] 2.0 μM, compared with PS-dT8[3+]:10 complex, FIG. 16, listed as 10): No significant level of luciferase activity was detected; also recorded: Poor luciferase activity
luciferase activity (splice correction) upon PS-dT8[3+] (dTtaPS)-assisted delivery of PNA oligomers ([3]; PS-dT8[3+] 2 μM, FIG. 12, 13, 15, listed as 10): induced splice correction of the pre-mRNA encoding luciferase, in a dose-dependent manner
luciferase activity / internalization of the oligomer in the absence of PS-dT8[3+] (dTtaPS) [3]: no luciferase activity was detected
decrease of luciferase activity production at 4° C. relative to 37° C. [5]: at least 50%
cytotoxicity of oligomer:dTtaPS complexes [4]: did not induce significant cytotoxicity

octathymidilyl DNA phosphorothioate [PS-dT8]
decrease of luciferase activity production relative to control without PS-dT8 [6]: ≤ 80%
